Measured values published in patent US8518956B2, “1-(1-(2-ethoxyethyl)-3-ethyl-7-(4-methylpyridin-2-ylamino)-1H-pyrazolo[4,3-d]pyrimidin-5-yl) piperidine-4-carboxylic acid and salts thereof” (priority 2005, dated 2013).

What was measured:
PDE5 enzyme = target: T1, PDE5 enzyme (Homo sapiens, UniProt O76074); test: Method 1: Human Platelet PDE5 Enzyme Inhibition Scintillation Proximity Assay; format: biochemical; details: METHOD 1: PDE5 IC50, Table B, WO2004096810 examples
T1 construct: The PDE5 enzyme isolated from human platelets; from tissue; host or cells: human platelets
In short: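 Human platelet PDE5 hydrolysing 500 nM cGMP (3:1 unlabelled:[3H]) in Tris-HCl pH 7.4 with MgCl2 and BSA, 60 min at 30 °C. Reaction stopped with yttrium silicate SPA beads and [3H]GMP counted by scintillation. IC50 from sigmoid curves over a 10-point half-log dilution series, in duplicate.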

PDE6 enzyme = details: read-out: METHOD 2: PDE6 IC50; Table F, WO2004096810 examples
Source text: Method 2: Human Retina PDE6 Enzyme Inhibition Scintillation Proximity Assay (SPA)
The inhibition of PDE6 enzyme activity by a test compound can be measured in accordance with the in vitro assay of Method 1, but instead using semi-purified PDE6 enzyme isolated from human, bovine or canine retina in place of PDE5 enzyme. […] [3H]GMP binds to yttrium silicate SPA beads and is detected by scintillation counting. • PDE6 Purification: PDE6 can be isolated and purified from the following: Soluble rod PDE6/Rod Outer Segment PDE6 from Bovine eyes (Charles River Ltd, France); Cone PDE6 from Canine eyes (LAS); or Soluble rod and Cone PDE6 from Human eyes (I.I.A.M.).
While supporting the eye with the cornea uppermost, make a small incision through the conjunctiva below the level of the iris. The incision should be sufficient to allow the humor to escape through the cut. Using fine scissors, cut around the cornea to enable it to be lifted off as a flap. Using a small hook, engage the lens and gently pull it out of orbit, taking care not to pull out the retina at the same time. Allow the retina to drop down of its own accord to the base of the orbit.
Lift the retina with care and locate the optic nerve. Cut through the optic nerve and transfer the retina to a small dish containing a few ml of homogenisation buffer. Gently float the retina out on the surface of the buffer and remove any obvious pigmented material from the iris. Place the retina in a second dish with clean buffer to remove last traces of pigment and then transfer to a 50 ml Corning Costar centrifuge tube (Sigma) and keep on ice. • PDE6 Isolation and Purification from Retina: Allow 2 mls of the homogenisation buffer per bovine retina and 1 ml per retina for dog and human. Homogenise using hand-held homogeniser 3×5 second bursts cooling on ice between each burst. Filter homogenate through two layers of surgical gauze. Spin at 100,000 g for 60 minutes at 4° C. […] Run through FPLC (Pharmacia FPLC LKB/FRAC-100, Pharmacia) or aliquot and store in liquid nitrogen as needed. Method 2A: Alternative Human Retina PDE6 Enzyme Inhibition Scintillation Proximity Assay (SPA)

Row | Compound | IC50 (PDE5 enzyme) | IC50 (PDE6 enzyme)
1 | Cc1ccnc(Nc2nc(N3CCC(C(=O)O)CC3)nc3c(C)nn(CCOCC(F)(F)F)c23)c1 [WO2004096810 Example 261] | 0.57 nM | 58.8 nM
2 | Cc1cc(Nc2nc(N3CCC(C(=O)O)CC3)nc3c(C)nn(CCOCC(F)(F)F)c23)ncn1 [WO2004096810 Example 262] | 0.93 nM | 47.7 nM
3 | CCc1nn(CCOCC(F)(F)F)c2c(Nc3cc(C)ncn3)nc(N3CCC(C(=O)O)CC3)nc12 [WO2004096810 Example 263] | 0.27 nM | 25.3 nM
